Read-outs that look alike come from different tables or passages of the source. Where a SMILES comes first, the peptide text is derived from it. The star is where a group is joined. Cbz = O=C(OCc1ccccc1)*; CH2Cl = ClC*
Key:
[1] = molecular target: T1, CIB1 and αIIb interaction (CIB1-GST : F-αIIb peptide) (Homo sapiens, UniProt Q99828); test: FP assay, 1536-well qHTS format (primary and confirmatory screen); type: binding; conditions: for Confirm? (confirmatory screen): YES/NO; for Curve Class (confirmatory screen): qHTS curve class
T1 construct: made in house; host or cells: BL-21 plus RIL cells (E. coli)
T1 sequence (Q99828 1-191): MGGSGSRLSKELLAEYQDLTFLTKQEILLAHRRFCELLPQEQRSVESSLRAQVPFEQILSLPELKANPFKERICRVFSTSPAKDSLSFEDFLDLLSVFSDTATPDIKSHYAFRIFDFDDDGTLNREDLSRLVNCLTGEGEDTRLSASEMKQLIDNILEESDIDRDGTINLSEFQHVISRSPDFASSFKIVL

[2] = molecular target: T2, GST-CIB1 : F-scrambled peptide (Homo sapiens, UniProt Q99828); test: FP scrambled-peptide counter screen, 1536-well format; type: binding; conditions: for Curve Class (counterscreen): qHTS curve class; for IC50: read-out: IC50 [μM] (counterscreen); for Confirm? (counterscreen): YES/NO
T2 construct: made in house; host or cells: BL-21 plus RIL cells (E. coli)
T2 sequence (Q99828 1-191): T1 sequence (Q99828 1-191)

[3] = confirmatory screen, negative sign = inhibitory curve
[4] = confirmatory screen, read-out: IC50 [μM] (confirmatory screen)
[5] = qHTS FP screen hits, Table S2, negative = inhibition
[6] = qHTS FP screen hits, Table S2, read-out: IC50
[7] = counterscreen, negative sign = inhibitory curve
[8] = qHTS primary screen hits, Table S2, negative = inhibition
[9] = qHTS primary screen hits, Table S2, negative sign = inhibitory curve
[10] = qHTS primary screen hits, Table S2, read-out: IC50
[11] = qHTS primary screen hits, Table S2, negative sign = inhibitory curve, several classes where COUNT > 1
[12] = qHTS primary screen of LOPAC/NPACT libraries, negative = inhibition
[13] = qHTS primary screen of LOPAC/NPACT libraries, negative sign = inhibitory curve
[14] = qHTS primary screen of LOPAC/NPACT libraries, read-out: IC50

Efficacy (%) [1, 12] [%] | Curve Class [1, 13] | IC50 [1, 14] [µM] | Structure (SMILES) | Efficacy (%) [1, 8] [%] | IC50 [1, 10] [µM] | further results
– | – | – | O=c1[nH]c(=O)c2nc3ccccc3nc2[nH]1 [NCGC00015021-05] | – | – | Efficacy (%) (confirmatory screen) ([1]; confirmatory screen): -58%; Confirm? (confirmatory screen) ([1]; confirmatory screen): YES; Curve Class (confirmatory screen) [1, 3]: -2.2; IC50 [1, 4]: 44.7 µM; Efficacy (%) [1, 5]: -54%; IC50 [1, 6]: 33.5 µM; Efficacy (%) (counterscreen) ([2]; counterscreen): -65%; Curve Class (counterscreen) [2, 7]: -2.2; IC50 ([2]; counterscreen): 35.5 µM
– | – | – | COc1ccc2c(c[n+](C)c3c4cc5c(cc4ccc23)OCO5)c1OC.[Cl-] [NCGC00015225-03] | – | – | Efficacy (%) (confirmatory screen) ([1]; confirmatory screen): -56%; Confirm? (confirmatory screen) ([1]; confirmatory screen): YES; Curve Class (confirmatory screen) [1, 3]: -1.4; IC50 [1, 4]: 11.2 µM; Efficacy (%) (counterscreen) ([2]; counterscreen): -55%; Curve Class (counterscreen) [2, 7]: -2.2; IC50 ([2]; counterscreen): 28.2 µM
– | – | – | C=CC1=C(C)c2cc3[nH]c(cc4nc(cc5[nH]c(cc1n2)c(C)c5CCC(=O)O)C(CCC(=O)O)=C4C)c(C)c3C=C [NCGC00015844-07] | – | – | Efficacy (%) (confirmatory screen) ([1]; confirmatory screen): -112%; Confirm? (confirmatory screen) ([1]; confirmatory screen): YES; Curve Class (confirmatory screen) [1, 3]: -1.1; IC50 [1, 4]: 25.1 µM; Efficacy (%) (counterscreen) ([2]; counterscreen): -94%; Curve Class (counterscreen) [2, 7]: -2.2; IC50 ([2]; counterscreen): 25.1 µM
– | – | – | O=c1c(O)c(-c2ccc(O)c(O)c2)oc2cc(O)cc(O)c12 [NCGC00015870-16] | – | – | Efficacy (%) (confirmatory screen) ([1]; confirmatory screen): -32%; Confirm? (confirmatory screen) ([1]; confirmatory screen): YES; Curve Class (confirmatory screen) [1, 3]: -2.4; Efficacy (%) (counterscreen) ([2]; counterscreen): -31%; Confirm? (counterscreen) ([2]; counterscreen): YES; Curve Class (counterscreen) [2, 7]: 4
– | – | – | C[n+]1cc2c3c(ccc2c2ccc4cc5c(cc4c21)OCO5)OCO3.[Cl-] [NCGC00015959-09] | -124 | 14.1 | Curve Class (confirmatory screen) ([1]; Table S3, confirmatory screen, a negative sign marks inhibitory curves): 4; Efficacy (%) (confirmatory screen) ([1]; Table S3, confirmatory screen, negative = inhibition): 0%; Curve Class [1, 9]: -1.1; Curve Class (counterscreen) ([2]; Table S3, counterscreen, a negative sign marks inhibitory curves): 4; Efficacy (%) (counterscreen) ([2]; Table S3, counterscreen, negative = inhibition): 0%
– | – | – | Cl.N=C(NCCCCCCNC(=N)NC(=N)Nc1ccc(Cl)cc1)NC(=N)Nc1ccc(Cl)cc1 [NCGC00016246-13] | – | – | Efficacy (%) (confirmatory screen) ([1]; confirmatory screen): -57%; Confirm? (confirmatory screen) ([1]; confirmatory screen): YES; Curve Class (confirmatory screen) [1, 3]: -2.2; IC50 [1, 4]: 35.5 µM; Efficacy (%) [1, 5]: -37%; Curve Class ([1]; qHTS FP screen hits, Table S2, one class per curve where COUNT > 1, negative sign = inhibitory curve): -2.2; IC50 [1, 6]: 50.1 µM; Efficacy (%) (counterscreen) ([2]; counterscreen): -37%; Curve Class (counterscreen) [2, 7]: -1.2; IC50 ([2]; counterscreen): 22.4 µM
– | – | – | O=C1c2cccc(O)c2C(=O)c2c(O)cccc21 [NCGC00091367-05] | – | – | Efficacy (%) (counterscreen) ([2]; counterscreen): -17%; Confirm? (counterscreen) ([2]; counterscreen): YES; Curve Class (counterscreen) [2, 7]: 4
– | – | – | NS(=O)(=O)c1ccc(Cc2c(-c3ccc(F)c(-c4cccs4)c3)nn(-c3nc(C(=O)O)cs3)c2CC2CC2)cc1F.O=C(O)C(F)(F)F [NCGC00390071-01] | -33 | 50.1 | Curve Class [1, 11]: -2.2
-33 | -2.4 | 56.2 | COc1cc(Nc2cc(C#N)nc3cc(OCCCN4CCN(C)CC4)c(OC)cc23)c(Cl)cc1Cl [NCGC00390366-01] | – | – | –
– | – | – | O=C([O-])CCNc1cc(N2CCc3ccccc3CC2)nc(-c2ccccn2)n1.[Na+] [NCGC00390406-01] | -28 | 26.3 | Curve Class [1, 9]: -2.4
-33 | -2.4 | 50.1 | Nc1nccn2c(C3CCC(C(=O)O)CC3)nc(-c3cc4cccc(Cl)c4[nH]3)c12 (stereo not shown) [NCGC00390408-01] | – | – | –
-31 | -2.4 | 50.1 | COc1cc(N2CCC(N3CCN(C)CC3)CC2)ccc1Nc1ncc(Cl)c(-c2c[nH]c3ccccc23)n1 [NCGC00390583-01] | – | – | –
-27 | -2.4 | 50.1 | COc1cc(Nc2ccc([N+](=O)[O-])cc2C(=O)O)cc2ccccc12 [NCGC00402240-03] | – | – | –
-29 | -2.4 | 44.7 | CCCc1n[nH]c2c1C(c1cc(Cl)cc(Cl)c1O)C(C#N)=C(N)O2 (stereo not shown) [NCGC00402340-02] | – | – | –
– | – | – | COCc1ccc(-c2nn(Cc3ccccc3)c3ccccc23)o1 [NCGC00479273-01] | -37 | 56.2 | Curve Class [1, 11]: -2.4
-26 | -2.4 | 22.4 | Cc1sc2c(c1C)C(c1ccc(Cl)cc1)=N[C@@H](CC(=O)Nc1ccc(OCCOCCOCCOCCNc3cccc4c3C(=O)N(C3CCC(=O)NC3=O)C4=O)cc1)c1nnc(C)n1-2 (stereo partly shown) [NCGC00483927-01] | – | – | –
-26 | -2.4 | 56.2 | C=CC(=O)Nc1ccc(CN2C(=O)N(c3cc(OC)cc(OC)c3)Cc3cnc(Nc4ccc(N5CCN(C)CC5)cc4)nc32)cc1 [NCGC00484066-01] | – | – | –
-21 | -2.4 | 56.2 | CN1CCN(c2ccc(C(=O)Nc3n[nH]c4ccc(Cc5cc(F)cc(F)c5)cc34)c(NC3CCOCC3)c2)CC1 [NCGC00484067-01] | – | – | –

Efficacy (%) [1, 12] [%] | Curve Class [1, 13] | IC50 [1, 14] [µM] | Structure (SMILES) | Efficacy (%) [1, 8] [%] | IC50 [1, 10] [µM] | further results
-26 | -2.4 | 70.8 | O=C([C@@H]1CCCN(c2ccc3[nH]c(C4(n5cc(Cl)cn5)CC4)nc3n2)C1)N1CCCC1 [NCGC00485074-01] | – | – | –
-29 | -2.4 | 44.7 | CCOc1ccc(Cc2nc(-c3c(C)nc4ccccn34)cs2)cc1 [NCGC00485083-01] | – | – | –
-24 | -1.4 | 10 | C=C1C(=O)O[C@@H]2[C@H]3C(C)=CC(=O)C3=C(C)CC[C@@H]12 [NCGC00485131-01] | – | – | –
– | – | – | CC(=O)N[C@@H](CC(=O)O)C(=O)N[C@@H](CCC(=O)O)C(=O)N[C@H](C(=O)N[C@@H](CC(=O)O)C(=O)Nc1ccc2c(C)cc(=O)oc2c1)C(C)C [NCGC00485360-01] | -37 | 39.8 | Curve Class ([1]; qHTS primary screen hits, Table S2, NPACT library, negative sign = inhibitory curve): -2.4
-24 | -2.4 | 22.4 | CC(C)C[C@H](NC(=O)CNC(=O)OCc1ccccc1)C(=O)N[C@@H](Cc1ccccc1)C(=O)CCl [NCGC00485375-01] (Cbz-Gly-Leu-Phe-CH2Cl) | – | – | –
-32 | -2.4 | 50.1 | CN(C)c1ccc(NC(=O)NS(=O)(=O)c2ccc(Cl)cc2)cc1 [NCGC00485899-01] | – | – | –
-25 | -1.4 | 3.5 | Cc1ccc(-c2c(C(=O)CCl)n(CCCO)c3ncnc(N)c23)cc1 [NCGC00485901-01] | – | – | –
-26 | -2.4 | 44.7 | O=C(O)/C=C/c1ccc(-c2ccc(O)c(C34CC5CC(CC(C5)C3)C4)c2)cc1 [NCGC00485908-01] | – | – | –
-27 | -1.4 | 4 | Cc1cc(OCCCS(C)(=O)=O)cc(C)c1-c1cccc(COc2ccc(-c3cc(=O)[nH][s+]3[O-])cc2)c1 (stereo not shown) [NCGC00485952-01] | – | – | –
– | – | – | COc1ccc(C2CC(=O)Nc3nc(N4CCCCC4)sc32)c(OC)c1.O=C(O)C(F)(F)F (stereo not shown) [NCGC00488246-02] | -89 | 56.2 | Curve Class [1, 11]: -2.3
– | – | – | O=C(O)C(F)(F)F.O=C1CC(c2ccc(F)cc2F)c2sc(N3CCOCC3)nc2N1 (stereo not shown) [NCGC00488253-02] | -42 | 50.1 | Curve Class [1, 11]: -2.4
– | – | – | O=C(O)C(F)(F)F.O=C1CC(c2ccccc2F)c2sc(N3CCOCC3)nc2N1 (stereo not shown) [NCGC00488254-02] | -42 | 56.2 | Curve Class [1, 11]: -2.4
– | – | – | O=C(O)C(F)(F)F.O=C1CC(c2ccccc2Br)c2sc(N3CCOCC3)nc2N1 (stereo not shown) [NCGC00488255-02] | -54 | 79.4 | Curve Class [1, 11]: -2.4
– | – | – | COc1ccc(C2CC(=O)Nc3nc(N4CCOCC4)sc32)c(OC)c1.O=C(O)C(F)(F)F (stereo not shown) [NCGC00488259-02] | -59 | 56.2 | Curve Class [1, 11]: -2.4
– | – | – | O=C(O)C(F)(F)F.O=C1CC(c2ccc(F)cc2Cl)c2sc(N3CCOCC3)nc2N1 (stereo not shown) [NCGC00488260-02] | -41 | 50.1 | Curve Class [1, 11]: -2.4
– | – | – | O=C(O)C(F)(F)F.O=C1CC(c2c(F)cccc2F)c2sc(N3CCOCC3)nc2N1 (stereo not shown) [NCGC00488261-02] | -47 | 56.2 | Curve Class [1, 11]: -2.4
– | – | – | CNc1nc2c(s1)C(c1ccc(OC)cc1OC)CC(=O)N2.O=C(O)C(F)(F)F (stereo not shown) [NCGC00488262-02] | -39 | 56.2 | Curve Class [1, 9]: -2.4
-27 | -1.4 | 5.6 | COc1cccc(CNC(=O)C2=NC3SC=C(COCc4ccc(C(=O)O)cc4)C3C(=O)N2)c1 (stereo not shown) [NCGC00488702-01] | – | – | –

Structure (SMILES) | Efficacy (%) [1, 12] [%] | Curve Class [1, 13] | IC50 [1, 14] [µM] | Efficacy (%) [1, 8] [%] | IC50 [1, 10] [µM] | further results
Oc1ccc2c3c1O[C@H]1c4[nH]c5c(N=C=S)cccc5c4C[C@@]4(O)[C@@H](C2)N(CC2CC2)CC[C@]314 [NCGC00485321-01] | -30 | -2.4 | 100 | – | – | –

From article PMC11249646, “Small-Molecule Disruptors of the Interaction between Calcium- and Integrin-Binding Protein 1 and Integrin αIIbβ3 as Novel Antiplatelet Agents” (ACS Pharmacology & Translational Science, 2024)
